Assay results as given in US7498408B2, “Ryanodine receptor polypeptides” (E. I. du Pont de Nemours and Company, priority 2002, dated 2009).

Assays:
[1] = tested on: native cockroach ryanodine receptors (in embryonic neuronal cells); assay: Calcium release assay, calcium imaging in primary embryonic cockroach neuronal cells; format: cell-based, Periplaneta americana; settings: for Calcium Release (P. americana): known ryanodine receptor agents, native receptors in embryonic neuronal cells, result in words
Excerpt: Embryonic neuronal cultures of the American cockroach Periplaneta americana were established, with minor modifications, following the method of Beadle and Lees (1988) (in Cell Culture Approaches to Invertebrate Neuroscience, Academic Press, New York, pp 123-127). Briefly, 26-27-day old oothecae were collected, surface-sterilized and cut open along a line one-third of the distance below the dorsal midline. The heads were removed and placed in Schneider's Drosophila medium (Invitrogen Life Technologies™, Carlsbad, Calif.). Using fine forceps 40 brains were individually removed and placed in a small glass vial containing 700 μl of ‘5+4’ medium (‘5+4’ medium contained 5 parts Schneider's Drosophila medium plus 4 parts roach Basal Medium Eagle, with Earle's salts (BME, Sigma™, St. Louis, Mo.). Roach BME (with Earle's salts) contained 5 parts Hepes (1 M), 1 part penicillin/streptomycin and 44 parts BME (with Earle's salts). ‘5+4’ medium was made fresh and sterile filtered (0.2 μm filter) just prior to use). The brains were dissociated by sequential trituration as follows: 1) brains were passed through a standard Pasteur pipette 10 times; 2) the resulting tissue suspension was passed an additional 5 times through a Pasteur pipet with tip flamed to about half of its original diameter; 3) a final 5 passes were performed using a Pasteur pipet with tip flamed to slightly less than half of its original diameter. A repeat pipettor was used to dispense a 5 μl volume of the resulting suspension into the center of each well of a 96-well, glass-bottom plate previously coated with poly-L-lysine (0.2 mg/ml solution). Cells attached to the bottom of the wells during a 50 min incubation at 27-29° C. 150 ul of a 1:1 mixture of Leibovitz's L-15 medium and Yunker's modified Grace's medium was added, and plates were maintained in a humid incubator at 27-29° C. until use. After cells were allowed to attach wells were filled with a 1:1 mixture of Leibovitz's L-15 medium and Yunker's modified Grace's medium (Leibovitz's L-15 and Grace's medium were obtained from Invitrogen Life Technologies™, Carlsbad, Calif. and Yunker's modified Grace's medium was made with Grace's medium modified by addition of 5 mg L-methionine, 10 mg L-alanine, 182 mg MgCl26H20, 1 g Albumin Fraction V, 7 ml Fetal bovine serum, 10 ml Chick embryo extract, 2 ml Penicillin/Streptomycin, and 2 mg 20-hydroxyecdysone (prepared in ethanol prior to addition) to a final volume of 100 ml and sterile filtered (0.2 μm filter)). Cells were maintained in a high humidity incubator at 29° C. until testing.
Cells were rinsed in standard physiological saline having the following composition (mM): NaCl 190; CaCl2 9; KCl 3.1; probenicid 1; Tris buffer 10; pH 7.2. Cells were then bathed in standard physiological saline containing the calcium sensitive fluoroprobe Fluo4 AM (2 μM) and Pluronic F127 (0.002%) for 45 min. Cells were then rinsed in standard physiological saline for at least 15 min prior to testing. Within the hour prior to testing, standard physiological saline was replaced with standard physiological saline containing the organic cation channel blocker pimozide (10 μM), to inhibit influx of external calcium through voltage-gated calcium channels. The 96-well plate was placed on a PriorTm motorized stage mounted onto a Nikon Diaphot microscope and imaged using a 20× Fluor objective (NA 0.75). Individual wells from the 96-well plate were sequentially excited with light at 495 nm, and the emitted fluorescence at 530 nm was detected using a Hamamatsu ORCA ER digital camera with 2 pixel binning (image size 672×512 pixels).
Acquisition control, image processing and image analysis were conducted using Universal Imaging Corporation's MetaMorph™ imaging software (Universal Imaging, West Chester, Pa.). A series of 3 “control” images were acquired for each well. Experimental compounds were added followed by acquisition of 4 “experimental” images for each well. […]

[2] = tested on: recombinant Heliothis virescens ryanodine receptor (expressed in Sf9 cells); assay: Calcium release assay in Sf9 cells expressing recombinant Heliothis virescens ryanodine receptor; format: cell-based; settings: caffeine 10 mM; for calcium responses, Sf9 stably expressing H. virescens ryanodine receptor (FIG. 5): Compound 14 1 μM, Fura-2 AM imaging
Excerpt: (§1) Several drops of a suspension of recombinant Spodoptera frugiperda cell line, Sf9, transiently expressing insect ryanodine receptors were placed on a poly-L-lysine-coated coverslip and allowed to attach. Cells were then rinsed in physiological saline having the following composition (mM): NaCl 130; KCl 5.4; MgCl2 1.2; CaCl2 1.0; NaHCO3 4.2; NaH2P04 7.3; Glucose 10; Sucrose 63; MES 20; pH 6.3. Cells were then bathed in physiological saline containing the calcium sensitive fluoroprobe, Fura-2 AM (2 μM), and Pluronic F127 (0.002%) for 30 min. Cells were rinsed in standard physiololgical saline for at least 15 min prior to testing. Testing was conducted in standard physiological saline, as the cell lines are devoid of functional voltage-gated calcium channels.
(§2) Imaging studies were conducted using a Nikon Diaphot microscope with a 40× oil immersion objective (NA 1.3) Image acquisition and processing was performed using the MetaFluor™ imaging system from Universal Imaging Corporation (West Chester, Pa.) Calcium calibration was carried out using the Grynkiewicz equation with a dissociation constant (Kd) of 145 nM for Fura-2 (Grynkiewicz et al., 1985). Cell-attached coverslips were placed in a sealed chamber with physiological saline continuously perfused across the cells using a peristaltic pump. Test compounds solubilized in physiological saline were applied by switching the perfusate source.
(§3) For studies involving the stable recombinant Spodoptera frugiperda cell line, Sf9, (other cell lines could also be used such as Sf21, S2, etc) expressing an insect ryanodine receptor from Drosophila melanogaster, or Heliothis virescens (alternatively receptors from other species such as Myzus persicae, Peregrinus maidis, Aphis gossypii, etc) were grown in T75 (or other appropriate sized) flasks in supplemented Grace's insect medium. Cells were maintained in an incubator at 22° C. until testing. Cells were suspension-loaded with the calcium sensitive fluoroprobe, Fura-2 AM (1-2 μM) and Pluronic F127 (0.002%) in culture medium for 30 minutes under agitation. Cells were then centrifuged and the pellet resuspended in physiological saline having the following composition (mM): NaCl 130; KCl 5.4; MgCl2 1.2; CaCl2 1.0; NaHCO3 4.2; NaH2P04 7.3; Glucose 10; Sucrose 63; MES 20; pH 6.3 at approximately 150,000-200,000 cells per well (96-well plate). After a 30 minute equilibration period the cell plate was tested using a Molecular Devices' FlexStation™ system with dual wavelength excitation (340 and 380 nm) and fluorescence emission measured at 510 nm. Test and control samples were added using integrated fluidics and the intracellular calcium monitored over a 2 minute period.

[3] = tested on: control Sf9 cells without DNA / wild type Sf9; assay: Calcium response in control or wild-type Sf9 cells lacking recombinant receptor; format: cell-based, Spodoptera frugiperda; settings: for calcium responses in control cells without DNA (FIG. 3): Compound 16 10 and 100 nM
Excerpt: as §1, §2, §3

[4] = target: T1, recombinant Drosophila melanogaster ryanodine receptor (expressed in Sf9 cells) (Drosophila melanogaster, UniProt Q24498); format: cell-based; settings: for Calcium Release (D. melanogaster): known ryanodine receptor agents, transiently or stably expressed in Sf9 cells, result in words
T1 construct: His tag + attB1 + Lox footprint (N-terminal vector extension; present only if the Cre-Lox vector was the one used) (N); expressed in transfected cells
Excerpt: as §1
Cell-attached coverslips were placed in a sealed chamber with physiological saline continuously perfused across the cells using a peristaltic pump. Test compounds solubilized in physiological saline were applied by switching the perfusate source.
as §3

[5] = target: cockroach ryanodine receptor (roach femoral muscle membranes) (Periplaneta americana, UniProt Z9HFG3YSF4); assay: Radioligand displacement ([3H]-GN analog Cpd 1) from roach femoral muscle membranes; settings: for IC50: read-out: Displacement IC50 (nM) P. americana, displacement of [3H]-Cpd 1, roach muscle membranes, 60 min at 32° C.; for Radioligand Displacement (P. americana): known ryanodine receptor agents, result in words
Chain of cockroach ryanodine receptor (roach femoral muscle membranes) (Z9HFG3YSF4 1-5141): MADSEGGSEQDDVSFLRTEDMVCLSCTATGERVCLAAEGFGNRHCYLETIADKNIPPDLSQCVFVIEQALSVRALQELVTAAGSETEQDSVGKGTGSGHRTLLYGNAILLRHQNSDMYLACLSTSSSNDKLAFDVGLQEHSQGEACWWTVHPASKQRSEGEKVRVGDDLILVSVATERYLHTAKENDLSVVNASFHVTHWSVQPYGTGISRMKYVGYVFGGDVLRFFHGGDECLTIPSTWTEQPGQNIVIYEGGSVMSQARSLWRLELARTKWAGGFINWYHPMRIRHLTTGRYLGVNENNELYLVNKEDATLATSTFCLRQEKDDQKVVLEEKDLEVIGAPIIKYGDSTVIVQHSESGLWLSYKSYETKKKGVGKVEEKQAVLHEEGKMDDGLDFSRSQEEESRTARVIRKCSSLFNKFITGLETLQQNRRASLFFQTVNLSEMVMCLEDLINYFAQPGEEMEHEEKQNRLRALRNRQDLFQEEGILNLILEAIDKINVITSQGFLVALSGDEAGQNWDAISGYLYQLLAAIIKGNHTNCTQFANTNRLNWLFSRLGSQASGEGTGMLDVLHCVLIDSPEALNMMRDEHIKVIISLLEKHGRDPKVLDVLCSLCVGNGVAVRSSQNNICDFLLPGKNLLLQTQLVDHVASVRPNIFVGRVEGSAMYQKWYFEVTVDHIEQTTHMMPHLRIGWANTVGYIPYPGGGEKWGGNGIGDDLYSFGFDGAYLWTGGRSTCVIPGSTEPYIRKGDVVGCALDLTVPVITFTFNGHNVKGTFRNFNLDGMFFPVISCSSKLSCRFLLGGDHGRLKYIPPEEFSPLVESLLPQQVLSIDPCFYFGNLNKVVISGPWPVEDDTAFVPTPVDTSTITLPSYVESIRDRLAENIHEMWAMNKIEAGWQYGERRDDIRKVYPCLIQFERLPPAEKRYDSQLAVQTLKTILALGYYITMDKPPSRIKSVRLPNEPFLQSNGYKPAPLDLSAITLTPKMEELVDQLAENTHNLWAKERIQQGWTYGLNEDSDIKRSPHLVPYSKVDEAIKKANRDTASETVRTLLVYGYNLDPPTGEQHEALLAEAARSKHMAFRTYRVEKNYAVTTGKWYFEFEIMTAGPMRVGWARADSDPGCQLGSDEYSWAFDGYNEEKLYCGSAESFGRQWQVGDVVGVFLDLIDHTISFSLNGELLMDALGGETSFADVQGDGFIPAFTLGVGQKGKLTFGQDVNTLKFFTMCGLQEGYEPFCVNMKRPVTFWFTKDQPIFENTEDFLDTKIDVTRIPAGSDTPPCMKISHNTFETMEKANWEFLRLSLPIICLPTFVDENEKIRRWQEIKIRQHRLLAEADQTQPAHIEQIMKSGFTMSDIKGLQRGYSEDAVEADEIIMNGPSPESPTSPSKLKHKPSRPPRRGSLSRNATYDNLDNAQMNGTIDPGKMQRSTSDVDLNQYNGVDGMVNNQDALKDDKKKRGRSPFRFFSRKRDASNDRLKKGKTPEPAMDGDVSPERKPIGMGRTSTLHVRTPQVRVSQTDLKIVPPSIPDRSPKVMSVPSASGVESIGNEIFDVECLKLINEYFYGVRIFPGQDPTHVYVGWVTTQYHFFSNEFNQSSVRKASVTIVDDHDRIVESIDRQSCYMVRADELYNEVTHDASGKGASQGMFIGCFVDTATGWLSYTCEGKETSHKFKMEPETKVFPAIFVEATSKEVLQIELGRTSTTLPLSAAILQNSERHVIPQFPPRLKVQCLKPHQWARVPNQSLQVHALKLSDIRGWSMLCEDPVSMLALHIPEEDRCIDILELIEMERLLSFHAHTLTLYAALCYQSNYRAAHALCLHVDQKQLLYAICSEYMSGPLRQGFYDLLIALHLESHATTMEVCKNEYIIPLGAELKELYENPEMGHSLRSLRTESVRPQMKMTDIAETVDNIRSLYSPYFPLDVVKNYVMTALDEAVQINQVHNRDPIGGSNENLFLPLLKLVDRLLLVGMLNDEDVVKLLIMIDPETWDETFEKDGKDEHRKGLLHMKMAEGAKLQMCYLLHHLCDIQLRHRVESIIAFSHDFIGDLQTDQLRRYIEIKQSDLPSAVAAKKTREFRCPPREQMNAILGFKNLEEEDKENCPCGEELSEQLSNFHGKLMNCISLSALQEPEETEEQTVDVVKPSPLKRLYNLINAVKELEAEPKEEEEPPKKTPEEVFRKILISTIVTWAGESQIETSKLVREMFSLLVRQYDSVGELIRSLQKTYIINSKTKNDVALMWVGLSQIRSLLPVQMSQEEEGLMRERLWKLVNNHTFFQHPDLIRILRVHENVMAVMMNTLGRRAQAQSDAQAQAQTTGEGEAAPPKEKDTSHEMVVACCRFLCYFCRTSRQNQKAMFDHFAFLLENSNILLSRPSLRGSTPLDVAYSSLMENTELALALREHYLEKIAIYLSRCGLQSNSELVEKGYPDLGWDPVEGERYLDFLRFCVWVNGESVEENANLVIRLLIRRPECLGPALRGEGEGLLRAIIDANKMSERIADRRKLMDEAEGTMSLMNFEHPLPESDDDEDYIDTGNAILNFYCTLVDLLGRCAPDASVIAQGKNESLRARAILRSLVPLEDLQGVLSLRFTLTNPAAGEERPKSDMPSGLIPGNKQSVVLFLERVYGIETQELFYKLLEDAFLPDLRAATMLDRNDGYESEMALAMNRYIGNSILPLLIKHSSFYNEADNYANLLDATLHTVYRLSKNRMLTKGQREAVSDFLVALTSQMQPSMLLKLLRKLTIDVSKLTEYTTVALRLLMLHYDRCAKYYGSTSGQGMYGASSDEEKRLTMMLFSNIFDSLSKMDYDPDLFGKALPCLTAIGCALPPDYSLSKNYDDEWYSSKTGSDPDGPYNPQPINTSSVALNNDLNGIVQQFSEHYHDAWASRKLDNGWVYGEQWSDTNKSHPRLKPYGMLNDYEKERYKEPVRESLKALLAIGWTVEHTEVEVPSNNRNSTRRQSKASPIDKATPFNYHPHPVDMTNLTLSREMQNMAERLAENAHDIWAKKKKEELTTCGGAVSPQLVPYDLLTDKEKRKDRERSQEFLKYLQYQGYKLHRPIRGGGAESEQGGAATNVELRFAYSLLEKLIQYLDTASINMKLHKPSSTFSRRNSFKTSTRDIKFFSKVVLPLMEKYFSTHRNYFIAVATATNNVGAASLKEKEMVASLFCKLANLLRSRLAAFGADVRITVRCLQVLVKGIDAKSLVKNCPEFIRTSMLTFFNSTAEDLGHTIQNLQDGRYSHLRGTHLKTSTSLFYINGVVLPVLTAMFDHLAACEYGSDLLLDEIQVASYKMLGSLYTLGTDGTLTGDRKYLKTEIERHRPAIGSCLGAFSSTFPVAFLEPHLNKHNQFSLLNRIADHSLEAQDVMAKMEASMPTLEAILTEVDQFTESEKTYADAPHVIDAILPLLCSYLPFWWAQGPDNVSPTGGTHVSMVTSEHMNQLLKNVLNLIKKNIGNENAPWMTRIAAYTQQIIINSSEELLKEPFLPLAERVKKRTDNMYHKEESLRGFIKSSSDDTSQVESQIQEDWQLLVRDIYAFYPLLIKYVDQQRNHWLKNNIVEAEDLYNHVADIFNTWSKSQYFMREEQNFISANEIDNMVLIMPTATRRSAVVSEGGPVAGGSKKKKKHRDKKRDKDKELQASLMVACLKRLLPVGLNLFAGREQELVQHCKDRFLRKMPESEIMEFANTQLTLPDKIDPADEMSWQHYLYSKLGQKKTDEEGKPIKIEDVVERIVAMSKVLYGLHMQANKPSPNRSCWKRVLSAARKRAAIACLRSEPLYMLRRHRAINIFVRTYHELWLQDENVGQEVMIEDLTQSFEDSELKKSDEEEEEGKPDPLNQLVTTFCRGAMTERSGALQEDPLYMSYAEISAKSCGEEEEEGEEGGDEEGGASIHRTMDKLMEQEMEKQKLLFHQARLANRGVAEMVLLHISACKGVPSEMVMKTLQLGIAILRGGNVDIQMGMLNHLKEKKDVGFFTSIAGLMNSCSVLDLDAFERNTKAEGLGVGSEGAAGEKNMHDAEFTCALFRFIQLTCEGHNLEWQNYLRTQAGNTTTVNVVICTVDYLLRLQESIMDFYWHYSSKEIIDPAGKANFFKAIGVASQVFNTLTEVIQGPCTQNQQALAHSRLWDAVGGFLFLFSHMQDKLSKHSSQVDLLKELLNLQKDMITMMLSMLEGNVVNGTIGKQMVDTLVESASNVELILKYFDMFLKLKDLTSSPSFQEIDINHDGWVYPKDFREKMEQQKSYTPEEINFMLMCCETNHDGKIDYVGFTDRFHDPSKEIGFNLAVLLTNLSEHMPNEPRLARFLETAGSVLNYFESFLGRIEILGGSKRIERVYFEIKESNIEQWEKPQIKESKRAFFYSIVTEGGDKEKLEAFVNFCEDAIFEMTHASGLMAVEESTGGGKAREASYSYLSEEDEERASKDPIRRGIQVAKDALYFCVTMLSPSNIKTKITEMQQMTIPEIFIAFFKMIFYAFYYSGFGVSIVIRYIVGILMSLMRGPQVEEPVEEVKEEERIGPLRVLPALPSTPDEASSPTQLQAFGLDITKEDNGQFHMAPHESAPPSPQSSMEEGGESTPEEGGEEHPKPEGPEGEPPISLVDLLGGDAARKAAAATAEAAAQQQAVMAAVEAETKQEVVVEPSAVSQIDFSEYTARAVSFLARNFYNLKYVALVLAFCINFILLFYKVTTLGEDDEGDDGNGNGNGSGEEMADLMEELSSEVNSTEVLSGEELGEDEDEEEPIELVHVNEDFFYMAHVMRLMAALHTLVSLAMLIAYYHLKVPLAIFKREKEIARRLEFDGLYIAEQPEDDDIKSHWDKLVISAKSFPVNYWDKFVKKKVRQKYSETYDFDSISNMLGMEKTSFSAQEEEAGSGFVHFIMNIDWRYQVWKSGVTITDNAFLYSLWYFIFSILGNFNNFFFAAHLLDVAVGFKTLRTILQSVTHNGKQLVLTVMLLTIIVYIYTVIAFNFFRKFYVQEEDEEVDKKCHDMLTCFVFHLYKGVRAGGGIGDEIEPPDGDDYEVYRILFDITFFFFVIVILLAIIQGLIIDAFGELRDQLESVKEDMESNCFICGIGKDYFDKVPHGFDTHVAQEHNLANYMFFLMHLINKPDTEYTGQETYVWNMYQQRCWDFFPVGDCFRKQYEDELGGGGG
Protocol: Mid and hind legs from 6-9 week old cockroaches were excised and immediately placed in liquid nitrogen. Excised legs could be stored at −80° C. for several months, if necessary, prior to further fractionation. Typically, membrane preparations started with approximately 55 g (wet weight) of excised legs. All subsequent steps were carried out at 4° C.
The legs were homogenized on ice using a Polytron (Brinkmann Instruments, Westbury, N.Y.) for 2 min at Setting #3. In order to remove all fragments of cuticle, the homogenate was first passed through two layers of cheesecloth and then through one layer of glass wool overlaid on two layers of cheesecloth. On occasion, the cheesecloth clogged with particulates prior to passing all material through. In such cases, fresh cheesecloth (and glass wool) was used for the remainder of the suspension. […] The supernatant was collected and centrifuged for 30 min at 30,000×gmax. The resulting pellet was resuspended in buffer A (1.5 M KCl, 0.3 M sucrose, 0.5 mM CaCl2, 20 mM Tris-HCl, pH 8.0). The membrane suspension was homogenized by hand (about 25 strokes) using a glass-teflon homogenizer. […] Subsequently, the membrane suspension was adjusted to 4 μg protein/μg by addition of buffer A and then stored in 1 ml aliquots at −80° C.
The assay was begun by addition of 25 μl of roach muscle membranes at 2 μg/μl (prepared by thawing and addition of an equal volume of buffer B), and incubation was carried out for 60 min at 32° C. Assays were carried out in triplicate.
The compound was allowed to pre-incubate with the membranes for 10 min at 32° C. […] Assays were carried out in triplicate.
Following incubation, assays were quenched with ice-cold buffer B and immediately filtered on pre-wefted Unifilter 96 GF/B filter microplates using a Unifilter 96 Harvester (PerkinElmer™, Boston, Mass.). Each assay well was then washed 10 times with buffer B, and collected on the same filter microplate. The filter microplates were then placed in a vacuum oven at 32° C. for 3 h, following which 50 μl of Microscint 0 (PerkinElmer™, Boston, Mass.) was added to each well. Plates were then heat sealed and counted using a Topcount microplate scintillation counter (PerkinElmer™, Boston, Mass.).

Row | SMILES | Calcium Release Threshold (nM) P. americana [1] | IC50 [5] | also measured
1 | Oc1c(Br)cc2[nH]c3cnccc3c2c1Br [Bromoeudistomin D, reference compound] | – | – | Calcium Release (P. americana) [1]: Agonist
2 | Cn1c(=O)c2c(ncn2C)n(C)c1=O [Caffeine] | – | – | Calcium Release (P. americana) [1]: Agonist; cytosolic [Ca2+], Sf9 transiently expressing H. virescens ryanodine receptor (FIG. 4) ([2]; 72 hr post-transfection, Cpd 5 3 μM): increase in cytosolic [Ca^2+]; calcium responses, Sf9 stably expressing H. virescens ryanodine receptor (FIG. 5) [2]: calcium responses elicited; caffeine dose response, wild-type Sf9 cells (FIG. 6) ([3]; Sf9-WT, FlexStation, Fura-2): insensitive; response of lipid only (-DNA) or non-transfected cells ([3]; caffeine 10 mM): do not exhibit significant response; calcium responses in control cells without DNA (FIG. 4) ([3]; caffeine 10 mM, Compound 5 3 μM): No significant calcium responses; calcium responses in control cells without DNA (FIG. 3) ([3]; caffeine 10 mM): No significant calcium responses
3 | [3H]c1cc(C)c(NC(=O)c2cc(C(F)(F)F)nn2-c2ccccc2F)c(C(=O)NC(C)C)c1 [Cpd 1, 1-(2-Fluorophenyl)-N-[2-methyl-4-tritio-6-[[(1-methylethyl)amino]carbonyl]phenyl]-3-(trifluoromethyl)-1H-pyrazole-5-carboxamide] | <1000 nM | < 300 nM | Calcium Release Threshold (nM) D. melanogaster [4]: <300 nM
4 | Cc1cccc(C(=O)NC(C)C)c1NC(=O)c1cc(C(F)(F)F)nn1-c1ccccc1Cl [Cpd 2] | <300 nM | < 300 nM | Calcium Release Threshold (nM) D. melanogaster [4]: <300 nM
5 | Cc1cc(Br)cc(C(=O)NCC(C)C)c1NC(=O)c1cc(C(F)(F)F)nn1-c1ccccc1Cl [Cpd 3] | – | < 300 nM | –
6 | CNC(=O)c1cccc(C)c1NC(=O)c1cc(C(F)(F)F)nn1-c1ncccc1Cl [Cpd 6] | <300 nM | < 300 nM | –
7 | Cc1cccc(C(=O)NC(C)C)c1NC(=O)c1cc(Br)nn1-c1ncccc1Cl [Cpd 7] | <300 nM | < 300 nM | –
8 | Cc1cccc(C(=O)NC(C)C)c1NC(=O)c1cc(Cl)nn1-c1ncccc1Cl [Cpd 8] | <300 nM | < 300 nM | –
9 | Cc1cc(Br)cc(C(=O)NC(C)C)c1NC(=O)c1cc(C(F)(F)F)nn1-c1ncccc1Cl [Cpd 9] | <300 nM | < 300 nM | –
10 | Cc1cc(Cl)cc(C(=O)NC(C)C)c1NC(=O)c1cc(C(F)(F)F)nn1-c1ncccc1Cl [Cpd 10] | <300 nM | < 300 nM | –
11 | CNC(=O)c1cc(Cl)cc(C)c1NC(=O)c1cc(C(F)(F)F)nn1-c1ncccc1Cl [Cpd 11] | <300 nM | < 300 nM | Calcium Release Threshold (nM) D. melanogaster [4]: <300 nM
12 | Cc1cc(Br)cc(C(=O)NC(C)C)c1NC(=O)c1cc(Br)nn1-c1ncccc1Cl [Cpd 12] | <300 nM | < 300 nM | –
13 | Cc1cc(Cl)cc(C(=O)NC(C)C)c1NC(=O)c1cc(Br)nn1-c1ncccc1Cl [Cpd 13] | – | < 300 nM | –
14 | CNC(=O)c1cc(Cl)cc(C)c1NC(=O)c1cc(Br)nn1-c1ncccc1Cl [Cpd 14] | <300 nM | < 300 nM | Calcium Release Threshold (nM) D. melanogaster [4]: <300 nM; calcium responses, Sf9 stably expressing H. virescens ryanodine receptor (FIG. 5) [2]: calcium responses elicited
15 | CNC(=O)c1cc(Br)cc(C)c1NC(=O)c1cc(C(F)(F)F)nn1-c1ncccc1Cl [Cpd 15] | <300 nM | < 300 nM | –
16 | Cc1cc(Cl)cc(C(=O)NC(C)C)c1NC(=O)c1cc(Cl)nn1-c1ncccc1Cl [Cpd 16] | <300 nM | < 300 nM | Calcium Release Threshold (nM) D. melanogaster [4]: <300 nM; calcium responses, Sf9 transiently expressing D. melanogaster ryanodine receptor (FIG. 3) ([4]; 96 hr post-transfection, caffeine 10 mM, Compound 16 10 and 100 nM): calcium responses elicited; calcium responses in control cells without DNA (FIG. 3) ([3]; caffeine 10 mM): No significant calcium responses
17 | CNC(=O)c1cc(Cl)cc(C)c1NC(=O)c1cc(Cl)nn1-c1ncccc1Cl [Cpd 17] | <300 nM | < 300 nM | –
18 | CCNC(=O)c1cc(Br)cc(Br)c1NC(=O)c1cc(C(F)(F)F)nn1-c1ncccc1Cl [Cpd 18] | – | < 300 nM | –
19 | COc1cccc2c1C(=O)c1c(O)c3c(c(O)c1C2=O)C[C@@](O)(C(=O)CO)C[C@@H]3O[C@H]1C[C@H](N)[C@H](O)[C@H](C)O1.Cl [Doxorubicin, reference compound] | – | – | Calcium Release (P. americana) [1]: Inactive
20 | N.N.N.N.N.N.N.N.N.N.N.N.N.N.[Cl-].[Cl-].[Cl-].[Cl-].[Cl-].[Cl-].[O-2].[O-2].[Ru+3].[Ru+3].[Ru+4] [Ruthenium Red, reference compound] | – | – | Calcium Release (P. americana) [1]: Inactive; Calcium Release (D. melanogaster) [4]: Antagonist; Radioligand Displacement (P. americana) [5]: Displacer
21 | CC(C)[C@@]1(O)[C@@H](OC(=O)c2ccc[nH]2)[C@@]2(O)[C@@]3(C)C[C@]4(O)O[C@@]5([C@H](O)[C@@H](C)CC[C@]35O)[C@@]2(O)[C@@]14C [Ryanodine] | – | – | Calcium Release (P. americana) [1]: Antagonist; Calcium Release (D. melanogaster) [4]: Antagonist; Radioligand Displacement (P. americana) [5]: Inactive
